According to patent publication US7875607B2, “7,8-bicycloakyl-chroman derivatives” (Ampere Life Sciences, Inc., priority 2004, dated 2011):
pEC50, pIC50: −log10 of the molar value.

Columns and labels:
[1] = tested on: dopaminergic neuronal cell line; test: High glutamate-induced oxidative stress assay (HGOS); type: cell-based; settings: Mus musculus; 30 mM glutamate, 16 hrs; read-out: EC50, protection against HGOS cell injury and cell death
Excerpt: Protection against redox stress can be further evaluated in cell culture using high glutamate induced oxidative stress (HGOS) in mouse dopaminergic cell lines. The cytotoxic effect of glutamate is not due to excitotoxicity, as this cell line is devoid of inotropic glutamate receptors. Rather, the glutamate-induced toxicity of dopaminergic cells is associated with an inhibition of cystine transport which subsequently leads to depletion of intracellular glutathione (GSH) levels (Murphy T. H., et al. Neuron 2, 1547-1558, 1989), activation of neuronal 12-lipoxygenase (Li, Y. et al., Neuron 19, 453-463, 1997), increased ROS production (Tan S. et al., J. Cell Biol. 141, 1423-1432, 1998) and elevated intracellular Ca^2+ (Li, Y. et al., see supra). Some molecules were measured for their ability to protect cells against glutamate-induced stress and the assay is detailed in Examples.
This procedure was used to induce high glutamate-induced oxidative stress (HGOS) in a dopaminergic neuronal cell line. Using this assay the potency and efficacy of test articles against HGOS neuronal cell injury and cell death was established in a high throughput manner.
The cells were seeded into 96-well plates at a density of 2000 per well and left to grow for 72 hours in a 33° C. incubator with 5% CO2 in air atmosphere. The passage number of the cells for each assay experiment were no later than p11 in order to minimize experimental variation.
All compounds were dissolved in DMEM-No Glu containing 1 mM glucose, 30 mM glutamate and 1×Pen/Strep. DMEM-No Glu with 1 mM glucose and 1×P/S was used as the negative control, DMEM-No Glucose with 1 mM glucose, […] was used as a positive control and 100 μM Glutathione was added to the positive control as a standard. All of the procedures for this involving the making and dilution of compounds were performed using aseptic conditions and with minimal light.
The plates were removed from the incubator and examined under the microscope for morphological appearance and density. Using an aseptic technique and an 8-channel aspirator the media was carefully removed from the cells and replaced with 200 μl of 1×HBSS. This was done as quickly as possible to prevent the cells drying out. The plates were then placed in the humidified 37° C. incubators of the Biomek 2000 Side Loader. Four plates were washed at a time so as to minimize the time that the cells were sitting in 1×HBSS prior to addition of the compound test solution.
The Beckman Biomek workstations were used to load the compounds and controls from the mother plates onto the cell plates that were prewashed with HBSS under sterile conditions. The plates were incubated in the upper HTS incubator at 37° C. in 5% CO2 for exactly 16 hrs. The following day, using the Beckman Biomek workstations, the plates were removed from the incubator. Using Cell Tracker Addition, the compounds were removed from the plates, washed once with […] of pre-warmed 1×HBSS and then 100 μL of 5 μM Cell Tracker Green was added to each well. The plates were incubated at 37° C. for 30 min to allow the dye to enter the cell and be cleaved by the esterases. After washing the cells twice with prewarmed 1×HBSS, the plates were read with the 485 excitation; 538 emission filter pair on a Fluoroskan.

[2] = tested on: LTB4 production in heparinized whole blood; test: Inhibition of LTB4 production in blood; type: cell-based, rat or mouse; settings: 20 μM A23187, read-out: EC50, protection against LTB4
Experimental: The blood was collected in heparinized tubes or syringes to prevent clotting. Heparin was at 20 USP U/ml. About 3-5 ml of blood was collected per rat and about 0.5-0.75 ml per mouse. This assay required 200 μl/data point, therefore a 96 well plate requires 20 ml.
The Calcium ionophore A23187 was prepared as a 10 mM stock solution in DMSO and the test agent is prepared in DMSO so that <1 μl DMSO will be added to the well
200 μl blood per well were added in a round bottom 96 well clear plastic 96 well plate followed by the test agent. After 10 minutes incubation at 37° C., 5 μl of Calcium ionophore A23187 for a final concentration of 20 μM were added and mixed, and further incubated for 30 min. After 1000×g centrifugation to pellet blood cells, 20 μl plasma was carefully removed.
20 μl plasma were added to 80 μl methanol to precipitate protein and mixed. This was further incubated 10 min. at room temperature and centrifuged at 1000×g to pellet protein.
Following manufacturer's instructions, the commercially available EIA kit was used to subsequently measure the LTB4 production in the samples. The LTB4 levels produced in the vehicle control sample were then compared to those in which the test compound had been added. From this a percent inhibition of LTB4 production by each concentration of test compound was calculated and the IC50 for inhibition of LTB4 production for each test compound was determined.

[3] = target: T1, human recombinant 5-lipoxygenase (Homo sapiens, UniProt P09917); test: 5-Lipoxygenase enzyme assay; type: biochemical; settings: 70 μM arachidonic acid, pH 7.4
T1 construct: purchased Cayman 60402
T1 sequence (P09917 1-674): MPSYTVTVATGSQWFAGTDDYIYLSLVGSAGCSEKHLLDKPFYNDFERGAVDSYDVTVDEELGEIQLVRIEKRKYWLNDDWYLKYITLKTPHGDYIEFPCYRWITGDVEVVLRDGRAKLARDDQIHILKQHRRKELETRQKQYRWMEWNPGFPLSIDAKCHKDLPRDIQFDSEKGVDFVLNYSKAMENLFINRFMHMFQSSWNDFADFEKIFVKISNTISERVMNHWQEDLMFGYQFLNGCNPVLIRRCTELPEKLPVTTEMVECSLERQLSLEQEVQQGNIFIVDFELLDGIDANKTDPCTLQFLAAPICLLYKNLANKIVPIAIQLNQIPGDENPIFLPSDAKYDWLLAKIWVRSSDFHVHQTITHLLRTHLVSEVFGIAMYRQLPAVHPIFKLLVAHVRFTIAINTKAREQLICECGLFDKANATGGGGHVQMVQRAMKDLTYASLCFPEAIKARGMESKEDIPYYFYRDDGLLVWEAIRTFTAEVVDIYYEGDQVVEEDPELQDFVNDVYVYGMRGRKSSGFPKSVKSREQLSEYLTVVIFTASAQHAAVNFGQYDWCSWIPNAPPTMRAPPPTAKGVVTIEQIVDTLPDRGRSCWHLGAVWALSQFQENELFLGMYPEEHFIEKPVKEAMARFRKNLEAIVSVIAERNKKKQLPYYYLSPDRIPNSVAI
Experimental: This procedure was used for measuring the enzymatic activity of human recombinant 5-lipoxygenase using a […] method based on the ferric oxidation of xylenol orange.
Human recombinant 5-lipoxygenase (Cayman Cat # 60402) was used in this assay. The test compound and/or vehicle was added to 0.5U 5-lipoxygenase in 50 mM Tris-HCl buffer, pH 7.4. The reaction was initiated by addition of 70 μM arachidonic acid in Tris-HCl buffer, pH 7.4, and terminated after a 10 minute incubation at room temperature by addition of FOX reagent (25 mM sulphuric acid, 100 μM xylenol orange, 100 μM iron (II) sulphate, methanol:water 9:1). The yellow color of acidified xylenol orange was converted to a blue color by the lipid hydroperoxide-mediated oxidation of Fe^2+ ions and the interaction of the resulting Fe^3+ ions with the dye. The complex was allowed to form during a 1 hour incubation at room temperature with shaking. Absorbance of the Fe^3+ complex was then measured at […] using a spectrophotometer.
Negative controls contained enzyme during the incubation step but substrate was not added until after the FOX reagent.
Compounds were screened at 5 concentrations in triplicate starting at 10 μM

[4] = tested on: LTB4 release from MPRO cell line; test: LTB4-cell assay; type: cell-based; settings: Mus musculus; differentiated MPRO cells, 1 μM A23187, 1 hour; read-out: EC50, inhibition of LTB4
Experimental: This procedure was used for measuring the release of the leukotriene LTB4 from a neutrophil cell line using a competitive ELISA technique.
A mouse promyelocytic cell line (MPRO) was used in this assay. These cells are committed immature neutrophils that can be differentiated into mature neutrophils by treatment with 10 μM all-trans retinoic acid for 72 hours
Following 72 hours of differentiation, cells were stimulated with 1 μM of a calcium ionophore (A23187) in the presence or absence of test compound or vehicle for 1 hour at 37° C. After this time, supernatant was removed from the cells and the LTB4 levels were determined following manufacturer's instructions, using a Leukotriene B4 EIA kit from Cayman (Cat # 520111)
The negative controls were media samples from differentiated but unstimulated cells.
The compounds were screened at 5 concentrations in quadruplicate starting at 10 μM

Row | Compound | pEC50 [1] | further results
1 | CC(=O)Oc1c(CCC(C)C)c2c(c3c1C1CCC3C1)OC(C)(C)CC2 (stereo not drawn) [Acetic acid 2,2-dimethyl-5-(3-methyl-butyl)-3,4,7,8,9,10-hexahydro-7,10-methano-2H-benzo[h]chromen-6-yl ester] | ≥ 6.00 | 
2 | COP(=O)(CCCC1(C)CCc2cc(O)c3c(c2O1)C1CCC3C1)OC (stereo not drawn) [[3-(6-Hydroxy-2-methyl-3,4,7,8,9,10-hexahydro-7,10-methano-2H-benzo[h]chromen-2-yl)-propyl]-phosphonic Acid Dimethyl Ester] |  | pEC50 [2]: ≥ 5.00
3 | COC12CCC(CC1)c1c(O)cc3c(c12)OC(C)(C)CC3 [10-Methoxy-2,2-dimethyl-3,4,7,8,9,10-hexahydro-7,10-ethano-2H-benzo[h]chromen-6-ol] |  | pIC50 [3]: ≥ 5.30
4 | CC(=O)Oc1c(CC=C(C)C)c2c(c3c1C1CCC3C1)OC(C)(C)C=C2 (stereo not drawn) [Acetic acid 2,2-dimethyl-5-(3-methyl-but-2-enyl)-7,8,9,10-tetrahydro-7,10-methano-2H-benzo[h]chromen-6-yl ester] | ≥ 6.00 | 
5 | CN(C)CC(=O)Oc1cc2c(c3c1C1CCC3CC1)OC(C)(C)CC2 [Dimethylamino-acetic acid 2,2-dimethyl-3,4,7,8,9,10-hexahydro-7,10-ethano-2H-benzo[h]chromen-6-yl ester] |  | pEC50 [4]: ≥ 5.30
6 | CCCC1=NN(C)C(=O)/C1=C\c1c(O)c2c(c3c1CCC(C)(C)O3)C1CCC2C1 (stereo not drawn) [4-(6-Hydroxy-2,2-dimethyl-3,4,7,8,9,10-hexahydro-7,10-methano-2H-benzo[h]chromen-5-ylmethylene)-2-methyl-5-propyl-2,4-dihydro-pyrazol-3-one] | ≥ 6.00 | pEC50 [2]: ≥ 5.00
7 | COC(=O)CCC1(C)CCc2cc(O)c3c(c2O1)C1CCCC3CC1 (stereo not drawn) [3-(6-Hydroxy-2-methyl-3,4,7,8,9,10-hexahydro-7,10-propano-2H-benzo[h]chromen-2-yl)-propionic Acid Methyl Ester] | ≥ 6.00 | pIC50 [3]: ≥ 5.30
8 | CC1(C)CCc2c(Br)c(O)c3c(c2O1)C1CCC3CC1 [5-Bromo-2,2-dimethyl-3,4,7,8,9,10-hexahydro-7,10-ethano-2H-benzo[h]chromen-6-ol] | ≥ 6.00 | pEC50 [2]: ≥ 5.00; pIC50 [3]: ≥ 5.30
9 | CC(C)=CCc1c(O)c2c(c3c1CCC(C)(C)O3)C1CCC2CC1 [2,2-Dimethyl-5-(3-methyl-but-2-enyl)-3,4,7,8,9,10-hexahydro-7,10-ethano-2H-benzo[h]chromen-6-ol] | ≥ 6.00 | 
10 | CC(C)=CCc1c(O)c2c(c3c1C=CC(C)(C)O3)C1CCC2C1 (stereo not drawn) [2,2-Dimethyl-5-(3-methyl-but-2-enyl)-7,8,9,10-tetrahydro-7,10-methano-2H-benzo[h]chromen-6-ol] | ≥ 6.00 | 
11 | CC1(CCC(=O)OCc2ccccc2)CCc2cc(O)c3c(c2O1)C1CCC3CC1 (stereo not drawn) [3-(6-Hydroxy-2-methyl-3,4,7,8,9,10-hexahydro-7,10-ethano-2H-benzo[h]chromen-2-yl)-propionic acid benzyl ester] |  | pIC50 [3]: ≥ 5.30
12 | CC1(C)CCc2c(CO)c(O)c3c(c2O1)C1CCC3C1 (stereo not drawn) [5-Hydroxymethyl-2,2-dimethyl-3,4,7,8,9,10-hexahydro-7,10-methano-2H-benzo[h]chromen-6-ol] | ≥ 6.00 | 
13 | CC1(C)CCc2c(C=C3C(=O)Oc4ccc(O)cc43)c(O)c3c(c2O1)C1CCC3C1 (stereo not drawn) [5-Hydroxy-3-(6-hydroxy-2,2-dimethyl-3,4,7,8,9,10-hexahydro-7,10-methano-2H-benzo[h]chromen-5-ylmethylene)-3H-benzofuran-2-one] | ≥ 6.00 | 
14 | CC1(CCCSc2nc3ccccc3s2)CCc2cc(O)c3c(c2O1)C1CCC3CC1 (stereo not drawn) [2-[3-(Benzothiazol-2-ylsulfanyl)-propyl]-2-methyl-3,4,7,8,9,10-hexahydro-7,10-ethano-2H-benzo[h]chromen-6-ol] | ≥ 6.00 | 
15 | CC1(C)CCc2c(CC=C3CCCCC3)c(O)c3c(c2O1)C1CCC3CC1 [5-(2-Cyclohexylidene-ethyl)-2,2-dimethyl-3,4,7,8,9,10-hexahydro-7,10-ethano-2H-benzo[h]chromen-6-ol] | ≥ 6.00 | 
16 | CC1=NN(c2ccc(C(=O)O)cc2)C(=O)C1=Cc1c(O)c2c(c3c1CCC(C)(C)O3)C1CCC2C1 (stereo not drawn) [4-[4-(6-Hydroxy-2,2-dimethyl-3,4,7,8,9,10-hexahydro-7,10-methano-2H-benzo[h]chromen-5-ylmethylene)-3-methyl-5-oxo-4,5-dihydro-pyrazol-1-yl]-benzoic acid] | ≥ 6.00 | 
17 | COC(=O)CCC1(C)CCc2cc(O)c3c(c2O1)C1CCC3CC1 (stereo not drawn) [3-(6-Hydroxy-2-methyl-3,4,7,8,9,10-hexahydro-7,10-ethano-2H-benzo[h]chromen-2-yl)-propionic acid methyl ester] |  | pIC50 [3]: ≥ 5.30
